# Molecular target: T1, Potassium/sodium hyperpolarization-activated cyclic nucleotide-gated channel 4 (Homo sapiens) (UniProt Q9Y3Q4)
# T1 sequence (whole entry): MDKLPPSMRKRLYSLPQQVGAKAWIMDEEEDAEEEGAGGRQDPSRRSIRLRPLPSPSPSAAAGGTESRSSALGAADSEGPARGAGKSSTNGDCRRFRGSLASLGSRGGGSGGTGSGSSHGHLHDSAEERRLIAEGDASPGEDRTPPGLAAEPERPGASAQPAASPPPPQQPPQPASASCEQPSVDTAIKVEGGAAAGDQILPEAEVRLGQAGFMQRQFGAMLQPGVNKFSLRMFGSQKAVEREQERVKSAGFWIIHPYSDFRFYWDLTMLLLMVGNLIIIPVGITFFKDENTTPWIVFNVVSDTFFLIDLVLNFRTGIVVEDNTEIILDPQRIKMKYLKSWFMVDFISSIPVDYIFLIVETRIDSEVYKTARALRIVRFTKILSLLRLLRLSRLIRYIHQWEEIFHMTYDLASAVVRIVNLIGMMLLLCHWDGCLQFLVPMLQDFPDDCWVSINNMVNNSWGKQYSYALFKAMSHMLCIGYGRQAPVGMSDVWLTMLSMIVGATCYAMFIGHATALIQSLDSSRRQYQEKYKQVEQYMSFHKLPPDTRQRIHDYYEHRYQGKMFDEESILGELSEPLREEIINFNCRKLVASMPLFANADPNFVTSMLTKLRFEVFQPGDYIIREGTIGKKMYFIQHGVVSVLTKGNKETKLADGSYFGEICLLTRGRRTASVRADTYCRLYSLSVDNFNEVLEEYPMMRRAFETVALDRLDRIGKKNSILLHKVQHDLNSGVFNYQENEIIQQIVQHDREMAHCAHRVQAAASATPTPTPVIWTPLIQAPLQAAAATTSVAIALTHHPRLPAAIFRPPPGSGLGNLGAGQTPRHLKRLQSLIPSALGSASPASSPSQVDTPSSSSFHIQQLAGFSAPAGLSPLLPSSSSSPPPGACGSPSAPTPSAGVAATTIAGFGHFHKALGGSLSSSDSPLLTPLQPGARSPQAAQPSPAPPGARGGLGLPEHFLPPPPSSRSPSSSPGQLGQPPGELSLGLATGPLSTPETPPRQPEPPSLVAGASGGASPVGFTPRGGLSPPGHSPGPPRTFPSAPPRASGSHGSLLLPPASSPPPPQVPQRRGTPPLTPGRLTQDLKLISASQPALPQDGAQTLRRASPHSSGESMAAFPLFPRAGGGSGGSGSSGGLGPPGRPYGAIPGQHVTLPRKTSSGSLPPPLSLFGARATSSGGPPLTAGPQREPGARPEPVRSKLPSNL
# Test: Inhibition of human HCN4 expressed in HEK293 cells assessed as reduction in hyperpolarization activated current at 10 uM at holding potential of -80 mV by patch clamp assay relative to control
# Format: cell-based
row,inhibition,SMILES
1,59%,COc1ccc(CCN(C)CCCN2CCc3cc(OC)c(OC)cc3CC2=O)cc1OC

# Molecular target: T1, Potassium/sodium hyperpolarization-activated cyclic nucleotide-gated channel 4 (Homo sapiens)
# Test: Inhibition of human HCN4 expressed in HEK293 cells assessed as reduction in hyperpolarization activated current at 5 uM at holding potential of -80 mV by patch clamp assay relative to control
# Format: cell-based
row,SMILES,inhibition
1,COc1ccc(/C=C/CN(C)[C@@H]2CCC[C@H](N3CCc4cc(OC)c(OC)cc4CC3=O)C2)cc1OC (relative stereo),64%
2,COc1ccc(CN(Cc2ccc(OC)c(OC)c2)[C@@H]2CCC[C@H](N3CCc4cc(OC)c(OC)cc4CC3=O)C2)cc1OC,4%
3,COc1ccc(CCN(C)[C@@H]2CC=C[C@H](N3C=Cc4cc(OC)c(OC)cc4CC3=O)C2)cc1OC,30%
4,COc1ccc(OCCN(C)[C@@H]2CCC[C@H](N3CCc4cc(OC)c(OC)cc4CC3=O)C2)cc1OC,48%

# Other lines, results leading:
row,inhibition,SMILES
1,21%,COc1ccc(CN(C)[C@@H]2CCC[C@H](N3CCc4cc(OC)c(OC)cc4CC3=O)C2)cc1OC (relative stereo)
2,47%,COc1ccc(CCCN(C)[C@@H]2CCC[C@H](N3CCc4cc(OC)c(OC)cc4CC3=O)C2)cc1OC (relative stereo)
3,45%,"COc1ccc(CCN(C)C2CCCC(N3CCc4cc(OC)c(OC)cc4CC3=O)C2)cc1OC (single isomer, unassigned; (-))"
4,46%,"COc1ccc(CCN(C)C2CCCC(N3CCc4cc(OC)c(OC)cc4CC3=O)C2)cc1OC (single isomer, unassigned; (+))"
